Measurements taken from patent US10959968B2, “Methods for treating c-Met-dependent cancers” (Board of Supervisors of Louisiana State University and …, priority 2016, dated 2021).
“Also recorded” adds a separate entry of the source.

Tests used:
[1] = system: non-tumorigenic human MCF10A mammary epithelial cells; test: Viability of non-tumorigenic mammary epithelial cells; format: cell-based; settings: similar treatment doses; 24 h
[2] = system: DU145 human prostate cancer cells; test: Cell scattering in 2D monolayer cultures; format: cell-based; settings: 16 h, listed as HVS
Method: (§1) FIG. 6. (A) Effect of HVS on HGF-induced migration of the highly metastatic MDA-MB-231 human breast cancer cells in wound healing assay. […] Vertical bars indicate the percentage of wound closure at 24 h after wounding, calculated relative to the wound distance at zero time±SEM of N=6 in each treatment group. SU11274 and (−)-oleocanthal were used as positive controls at 10 μM. Right panel represents photomicrographs of wound healing assay showing HVS treatment at three different concentrations (1.25, 2.5, and 5 μM) blocked the migration of MDA-MB-231 cells in response to HGF stimulation, as compared to DMSO as a vehicle control. (B) Effect of HVS on HGF-induced cell invasion of the highly aggressive MDA-MB-231 human breast cancer cells using Cultrex® BME cell invasion assay. The cells were treated with different concentrations of HVS for 24 h. Vertical bars indicate the percentage of cells invading the basement membrane at the end of treatment period±SEM of N=3 in each treatment group. (−)-Oleocanthal was used as a positive control at 20 μM dose.*P<0.05 as compared with vehicle-treated control. (C) Effect of HVS on HGF-induced scattering of the DU145 human prostate cancer cells in 2D monolayer cultures, compared to DMSO as vehicle control. Cells were treated with indicated concentrations of HVS for 30 minutes in serum-free media. […]

[3] = target: MST1R (RON0 (Homo sapiens, UniProt Q04912)); test: SelectScreen Kinase Profiling; format: biochemical; settings: read-out: Mean inhibition at 10 μM of HVS (%)
Chain of MST1R (RON0 (Q04912 25-1400): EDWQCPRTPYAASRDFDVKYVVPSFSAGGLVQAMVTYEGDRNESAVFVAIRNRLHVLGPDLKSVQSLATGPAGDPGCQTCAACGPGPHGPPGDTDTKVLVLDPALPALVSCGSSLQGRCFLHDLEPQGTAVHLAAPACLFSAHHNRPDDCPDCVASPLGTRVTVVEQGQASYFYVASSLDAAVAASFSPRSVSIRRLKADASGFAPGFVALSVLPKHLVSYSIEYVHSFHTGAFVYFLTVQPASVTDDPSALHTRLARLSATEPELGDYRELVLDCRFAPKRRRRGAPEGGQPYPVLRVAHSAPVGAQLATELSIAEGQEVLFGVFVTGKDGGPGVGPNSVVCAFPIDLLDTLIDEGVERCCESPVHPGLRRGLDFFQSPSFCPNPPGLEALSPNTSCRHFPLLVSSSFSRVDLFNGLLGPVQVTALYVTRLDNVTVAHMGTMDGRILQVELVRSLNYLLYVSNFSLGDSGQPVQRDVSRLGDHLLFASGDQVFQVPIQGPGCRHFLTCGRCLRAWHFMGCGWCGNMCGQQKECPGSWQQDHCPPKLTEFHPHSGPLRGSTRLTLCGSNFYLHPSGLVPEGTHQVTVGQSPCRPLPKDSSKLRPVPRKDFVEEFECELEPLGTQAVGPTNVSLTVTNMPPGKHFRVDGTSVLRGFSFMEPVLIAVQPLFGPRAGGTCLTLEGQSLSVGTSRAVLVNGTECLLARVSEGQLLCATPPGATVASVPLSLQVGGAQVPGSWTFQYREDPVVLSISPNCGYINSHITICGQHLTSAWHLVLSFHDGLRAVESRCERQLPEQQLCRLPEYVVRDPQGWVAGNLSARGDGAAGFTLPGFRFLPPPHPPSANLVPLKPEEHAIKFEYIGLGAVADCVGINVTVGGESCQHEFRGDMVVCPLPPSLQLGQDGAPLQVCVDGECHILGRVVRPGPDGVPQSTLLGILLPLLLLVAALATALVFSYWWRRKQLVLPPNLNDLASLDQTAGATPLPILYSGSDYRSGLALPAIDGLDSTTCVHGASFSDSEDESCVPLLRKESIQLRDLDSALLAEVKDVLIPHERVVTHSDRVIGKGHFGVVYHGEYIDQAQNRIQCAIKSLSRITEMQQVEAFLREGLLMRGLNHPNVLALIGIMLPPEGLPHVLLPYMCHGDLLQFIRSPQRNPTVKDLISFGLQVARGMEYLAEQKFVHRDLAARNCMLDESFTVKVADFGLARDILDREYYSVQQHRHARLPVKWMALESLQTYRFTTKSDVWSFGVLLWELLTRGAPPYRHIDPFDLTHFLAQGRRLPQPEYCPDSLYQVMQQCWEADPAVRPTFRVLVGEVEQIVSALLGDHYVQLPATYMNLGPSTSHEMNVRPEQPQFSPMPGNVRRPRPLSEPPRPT

[4] = system: c-Met phosphorylation in MDA-MB-231, MCF-7, and BT-474 mammary tumor cells; test: Western blot of HGF-induced c-Met activation in breast cancer cells; format: cell-based, human
Method: FIG. 4. A) Effect of HVS treatment on HGF-induced c-Met activation in human breast cancer cells using Western Blot analysis. […] The visualization of β-tubulin was used as a loading control. (B) Effect of HVS on HGF-induced c-Met activation and its downstream mitogenic signaling in DU145 human prostate cancer cells, as compared to vehicle-treated control group, using Western Blot analysis. Cells were pre-treated for 30 minutes with either HVS at 0.1, 0.3, 1, and 5 μM or (−)-oleocanthal at 5, 10, and 20 μM doses in serum-free 0.4-media. 33 ng/mL HGF was then added for 30 minutes. Whole cell lysates were collected and assayed by Western Blot. The visualization of α-tubulin was used as a loading control. Representative Western Blots from each experiment are shown, N=3.
Activation of c-Met prevents apoptosis and maintains cancer cell survival through activation of PI3K and subsequent Akt-NFκB activation.

[5] = system: MDA-MB231 spheroids; test: 3D spheroid growth, IncuCyte; format: cell-based, human; settings: Homo sapiens, MDA-MB-231, 10 micromolar, up to 72 hours
Method: FIG. 9. (A). MDA-MB231 cells were grown in 10% FBS DMEM. Cells were collected after trypsinization and resuspended in phenol-red free DMEM with 10% FBS. Cells were labeled with CellTracker Red (Life Technologies) for 5 minutes. After labeling cells were washed with PBS and transfer into 96-well Corning 7007 ULA round bottom plates at 1,000 cells/well in 100 μl phenol-red free media with 10% FBS and 5% Matrigel. […] Spheroids were grown at 37° C. and 5% CO2 in IncuCyte ZOOM (Essen Bioscience). Images were acquired every 4 h for a period of 72 h post-treatment. The data were expressed as fold increase in spheroids size at the end of the treatment using the “average red object area in the well” as determined by the IncuCyte software analysis.
MDA-MB231 spheroids were all allowed to form and treated with compounds for up to 72 hours. Images were captured using the Incucyte platform.

[6] = system: DU145 spheroids; test: 3D spheroid growth, IncuCyte; format: cell-based, human; settings: 72 hours
Method: FIG. 9B: DU145 cells were grown in 10% FBS DMEM. Cells were collected after trypsinization and resuspended in phenol-red free DMEM with 10% FBS. Cells were labeled with Cell-Tracker Red (Life Technologies) for 5 minutes. After labeling cells were washed with PBS and transfer into 96-well Corning 7007 ULA round bottom plates at 1,000 cells/well in 100 μl phenol-red free media with 10% FBS and 5% Matrigel. […] Spheroids were grown at 37° C. and 5% CO2 in IncuCyte ZOOM (Essen Bioscience). Images were acquired every 4 h for a period of 72 h post-treatment and software analysis was design to identify the red object in the well. The data were expressed as fold increase in spheroids size at the end of the treatment using the “average red object area in the well” as determined by the IncuCyte software analysis. FIG. 9C: Visually representative spheroids that are quantitated in FIG. 9B.
To determine the effectiveness of these compounds under 3D growth conditions which more accurately predict effectiveness of new drugs in humans, DU145 spheroids were formed and allowed to grow for 72 hours. Images were recorded every 4 hours using the Incucyte platform. […] Compounds 9 and 10, at 10 micromolar reduced spheroid growth by about 50 percent (not shown).

[7] = system: MDA-MB-231 human breast cancer cells; test: Cultrex BME cell invasion assay, HGF-induced; format: cell-based; settings: 24 h treatment
Method: as §1

[8] = target: ABL1 (Homo sapiens, UniProt P00519); test: SelectScreen Kinase Profiling; format: biochemical; settings: read-out: Mean inhibition at 10 μM of HVS (%)
Chain of ABL1 (P00519 whole entry): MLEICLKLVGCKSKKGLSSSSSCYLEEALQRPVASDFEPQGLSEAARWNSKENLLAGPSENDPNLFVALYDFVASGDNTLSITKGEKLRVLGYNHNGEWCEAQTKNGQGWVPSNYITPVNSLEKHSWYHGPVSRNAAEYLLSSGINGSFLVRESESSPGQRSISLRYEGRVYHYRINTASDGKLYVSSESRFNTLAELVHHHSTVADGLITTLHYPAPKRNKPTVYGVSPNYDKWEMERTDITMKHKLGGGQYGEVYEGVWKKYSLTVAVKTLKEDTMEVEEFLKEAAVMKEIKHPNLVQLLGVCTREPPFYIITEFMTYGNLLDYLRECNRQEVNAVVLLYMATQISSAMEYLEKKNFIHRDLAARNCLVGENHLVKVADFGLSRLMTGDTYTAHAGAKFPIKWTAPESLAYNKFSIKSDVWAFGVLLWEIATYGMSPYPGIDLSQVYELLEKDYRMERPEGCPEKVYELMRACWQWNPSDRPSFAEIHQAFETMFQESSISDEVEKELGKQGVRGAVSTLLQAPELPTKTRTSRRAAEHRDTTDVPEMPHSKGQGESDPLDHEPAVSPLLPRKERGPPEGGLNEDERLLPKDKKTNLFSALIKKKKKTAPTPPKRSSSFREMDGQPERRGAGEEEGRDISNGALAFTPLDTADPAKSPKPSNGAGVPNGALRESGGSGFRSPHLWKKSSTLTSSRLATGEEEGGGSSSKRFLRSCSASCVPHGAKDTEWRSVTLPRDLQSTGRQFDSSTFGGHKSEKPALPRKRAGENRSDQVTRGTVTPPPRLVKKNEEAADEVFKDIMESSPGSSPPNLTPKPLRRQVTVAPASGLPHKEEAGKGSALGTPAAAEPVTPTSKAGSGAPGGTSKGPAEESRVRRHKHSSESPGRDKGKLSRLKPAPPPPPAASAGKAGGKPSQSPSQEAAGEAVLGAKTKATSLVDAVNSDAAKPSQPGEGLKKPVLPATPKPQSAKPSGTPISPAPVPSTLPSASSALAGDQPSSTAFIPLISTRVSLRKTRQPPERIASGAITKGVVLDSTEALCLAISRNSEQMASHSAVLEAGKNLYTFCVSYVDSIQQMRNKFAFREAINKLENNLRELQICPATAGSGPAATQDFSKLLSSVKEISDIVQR

[9] = system: MDA-MB-231 human breast cancer cells; test: Wound healing assay, HGF-induced migration; format: cell-based; settings: wound closure at 24 h
Method: as §1

[10] = system: MDA-MB-231/GFP human breast cancer cells; test: Orthotopic breast cancer xenograft in athymic nude mice; format: in vivo; settings: 10 mg/kg ip, 3×/week; end of study

Structure (SMILES): COc1cc(CCOC(=O)/C=C/c2cc(OC)c(O)c(OC)c2)ccc1O [Compound 8, (E)-4-hydroxy-3-methoxyph-ethyl 3-(4-hydroxy-3,5-dimethoxyphenyl) acrylate]
- effect on non-tumorigenic human MCF10A cells [1]: no discernable effects
- HGF-induced cell scattering ([2]; 33 ng/mL HGF): significantly reduced; also recorded: appeared to block
- EGF-induced cell scattering ([2]; 100 ng/mL EGF, similar treatment doses): do not block; also recorded: not inhibited
- inhibition at 10 µM [3]: 15%
- HGF-induced c-Met phosphorylation ([4]; 72 h treatment): significant inhibition
- total c-Met levels ([4]; at the tested concentrations): did not affect
- inhibition at 10 µM [5]: 80%
- reduction of spheroid growth ([6]; 10 micromolar): over 80%
- lowest concentration blocking spheroid growth [6]: ≤ 1 µM
- HGF-induced invasion [7]: appears to inhibit
- inhibition at 10 µM [8]: 79%
- HGF-induced migration [9]: appears to inhibit
- reduction in tumor growth vs vehicle-treated control [10]: 92%
